The values below come from patent US6448062B1, “Simultaneous cleaning and decontaminating compositions and methods” (priority 1998, dated 2002).

Like-named read-outs stand apart in the source and are kept apart here.

Assay [1] deals with Mycobacterium bovis (ATCC 35743). The class given is cell-based.
For assay [2], the system named is Azocasein. The experiment in a line: In-situ protease activity assay: azocasein hydrolysis (Abs390) in H2O2/enzyme solutions. Particulars: for Absorbance (normalized with dilution factor) of hydrolyzed Azocasein solution at 390 nm: pH 8.5, 23° C., 1% azocasein; for Abs390 hydrolyzed azocasein solution: human chymotrypsin experiment, 23° C.
Description: Solutions of 7.5%^w/v H2O2 at various pH levels were prepared by adjusting the pH of 35%^w/w H2O2 solution (Degussa) with 10 mM K3PO4 in a volumetric flask in the presence of K2HPO4 (phosphate buffer, PB). The solution was diluted with 10 mM KH2PO4 solution of the same pH. […] Azocasein powder was added to the H2O2/Alcalase® mixed solutions to yield 0.4%^w/v azocasein. After 30 min at 23° C., 5 ml azocasein solution was mixed with 5 ml 10%^w/v TCA solution. Precipitates were removed after 15 min by filtration, and the supernatant Abs390 was measured.
One half hour prior to various time points (listed in Tables 5a-d), azocasein powder was added to the solution in an amount of 0.4% of the total solution weight. Abs390 of the solution was measured as in Example 4 except that the supernatant was diluted 6-7 fold to avoid saturation of the UV spectrophotometer.
An additional experiment employing the same method was conducted with human chymotrypsin.
For assay [3] the following is noted: 25 minutes contact at 20° C.; cited from earlier work.
Assay [4] has as its system spores of Bacillus subtilis (ATCC #19659). In words: AOAC test for Sporicidal Activity of Disinfectants, porcelain penicylinders, no organic soil load. It counts as cell-based. Particulars: for Results: positive penicylinders: exposure 4 hours.
Assay [5] relates to Azocasein. The experiment in a line: Azocasein hydrolysis (Abs390) by human trypsin or chymotrypsin in PAA/H2O2. The following applies: 23° C.
Description: The activity for the PAA/H2O2 solution alone as a control is also given. […] A volume of 4.05 ml of 10 mM K3PO4 buffer was combined with 0.45 ml initial trypsin buffer solution and 45 mg Azocasein to prepare the trypsin/phosphate buffer solution for the test.
A 0.22%^w/v PAA/1.17%^w/v H2O2 solution was prepared using a dilution of Degussa's 4.9%^w/w PAA/26.6%^w/w H2O2 in a volumetric flask. A volume of 4.05 ml of the latter solution was mixed with 0.45 ml initial trypsin/phosphate buffer solution and 45 mg Azocasein powder.
At 2.8 and 7 h, 1.5 ml sample aliquots were removed from the above three solutions and reacted with 1.5 ml of 10%^w/v trichloroacetic acid stop reagent. After incubating for 15-20 min, the solutions were filtered using Whatman #3 filter paper with a syringe and a Gelman 13 mm filter holder. The filtered solutions were then analyzed with a Shimadzu UV-visible 1601 spectrophotometer Abs390.
An additional example with human chymotrypsin follows. The solutions were similarly prepared as above.
Assay [6] has as its system Azocasein. The experiment in a line: Enzyme activity in 0.368% PAA/2% H2O2, modified Novo azocasein method.
Description: In a 100 ml volumetric flask, a solution was prepared using 7.5 ml of 4.9%^w/w (Degussa) PAA, 1 ml enzyme, and diluted with 0.2 M tris(hydroxymethyl)aminomethane to control the pH at 8.5 to yield a final concentration of 0.368%^w/v PAA/2%^w/v H2O2. […] A timer was started as soon as the combinations of enzymes and PAA/H2O2 were mixed. At periodic intervals, aliquots of the enzyme/PAA/H2O2 solutions were removed and diluted 64 times to react with the 0.6%^w/v Azocasein substrate solution in a water bath at the modified temperature of 30° C. for 30 min. After stopping the reaction with 10% TCA and filtering the precipitate, the supernatants were analyzed on a spectrophotometer at 390 nm.

Consider `OO` [6% H2O2 pH 1.8, hydrogen peroxide], for which the “% Reduction” value in assay [1] (contact time 5 min) stood at 98.65%; in assay [1] (contact time 10 min), 99.25%; in assay [1] (contact time 15 min), 99.51%; in assay [1] (contact time 20 min) it was 99.38%. Moreover, the “log10 Reduction” value in assay [1] (contact time 5 min) stood at 1.87; in assay [1] (contact time 10 min), 2.13; in assay [1] (contact time 15 min), 2.31; in assay [1] (contact time 20 min) it was 2.21.
In the case of `c1ccc2[nH]nnc2c1` [Benzotriazole, 1,2,3-benzotriazole], the “Absorbance (normalized with dilution factor) of hydrolyzed Azocasein solution at 390 nm” value in assay [2] (7.4 mM Na3PO4, 0.5 h) was 0.0986; in assay [2] (7.4 mM Na3PO4, 4.5 h), 0.1536.
`CC(=O)OO` [PAA, peracetic acid]: the “minimum effective concentration for high-level disinfection” value in assay [3] is 0.05 %w/w.
For the molecule `OO` [Sample 10, hydrogen peroxide], the “Results: positive penicylinders” value in assay [4] is 0 positive.
For the molecule `OO` [Sample 11, hydrogen peroxide], the “Results: positive penicylinders” value in assay [4] was 0 positive.
In the case of `OO` [Solutions of 7.5% H2O2 alone, hydrogen peroxide], the “exposure at which sporicidal (no positive penicylinders)” value in assay [4] is no more than 4 h.
With Chymotrypsin, the “Absorbance at 390 nm of hydrolyzed Azocasein solution” value in assay [5] (pH 7.25, 2 h) worked out at 2.716; in assay [5] (pH 7.25, 4 h) it was 3.674. Besides, the “Absorbance Ratio of Chymotrypsin/Azocasein solutions with and without 7.5% H2O2” value is recorded as 0.308 in assay [2] (2 h) and 0.316 in assay [2] (4 h). Besides, the “Abs390 hydrolyzed azocasein solution” value in assay [2] (pH 7.75, 2 h) turned out to be 2.541; in assay [2] (pH 7.75, 4 h), 3.653.
For the molecule Trypsin: human trypsin (Sigma), the “Absorbance at 390 nm of hydrolyzed Azocasein solution” value in assay [5] (pH 7.5, 1% azocasein, 2.8 h) is 1.4254; in assay [5] (pH 7.5, 1% azocasein, 7 h), 1.5588.

B1: Alcalase ® 2.5 L: commercial subtilisin A liquid concentrate, 2.5 Anson units per gram (Novo Nordisk) (protein, UniProt P00780 106-379, looked up)
Subtilisin Carlsberg: AQTVPYGIPLIKADKVQAQGFKGANVKVAVLDTGIQASHPDLNVVGGASFVAGEAYNTDGNGHGTHVAGTVAALDNTTGVLGVAPSVSLYAVKVLNSSGSGSYSGIVSGIEWATTNGMDVINMSLGGASGSTAMKQAVDNAYAKGVVVVAAAGNSGSSGNTNTIGYPAKYDSVIAVGAVDSNSNRASFSSVGAELEVMAPGAGVYSTYPTNTYATLNGTSMASPHVAGAAALILSKHPNLSASQVRNRLSSTATYLGSSFYYGKGLINVEAAAQ
modifications: commercial liquid concentrate
The molecule B1 had a decrease in activity in assay [6] (0.368% PAA/2% H2O2, after 7.5 hours) of 13%. In addition, the “Absorbance (proteolytic, 390 nm)” value in assay [6] (0.368% PAA/2% H2O2, pH 8.5, 0 h) turned out to be 0.6534; in assay [6] (0.368% PAA/2% H2O2, pH 8.5, 3.2 h), 0.6417; in assay [6] (0.368% PAA/2% H2O2, pH 8.5, 6.5 h), 0.6729; in assay [6] (0.368% PAA/2% H2O2, pH 8.5, 7.5 h), 0.5689.
